US11491178B2, “Chitosan covalently linked with small molecule integrin antagonist for targeted delivery” (Hoffmann-La Roche Inc., priority 2012, dated 2022)
Like-named read-outs stand apart in the source and are kept apart here.

Target: T1, VLA-4 (α4β1) (Homo sapiens, UniProt P05556+P13612)
T1 construct: Jurkat cells express high levels of VLA-4 on their membrane surface; host or cells: Jurkat Clone E6-1
Assay: VLA-4 (α4β1) binding assay: Jurkat cell adhesion to VCAM-1-coated plates
Assay type: cell-based
Description: Chitosan covalently linked with small molecule α4β1 antagonists having the general structure of formula IA below were assessed for their α4β1 (VLA-4) binding affinity:
The following adhesion assay has been reported previously and used in this invention with minor modification. See U.S. Pat. Nos. 6,229,011 and 6,380,387 both of which are incorporated herein by reference in their entirety. […] Each assay was conducted in a 96-well plate with VCAM-1 used as the counter ligand for the cells (i.e., VCAM-1 was bound to the surface of the wells).
More specifically, 96-well high-binding F96 Maxisorp immuno microtiter plates (Nunc) were coated overnight with 25 ng/well of VCAM-1. […]
To assess VLA-4 inhibition by the VLA-4 targeted chitosans (from the examples), Jurkat cells (expressing high levels of VLA-4) were added to the VCAM-1-coated plates to a final concentration of 2×10^5 cells/well in 96-well plates and allowed to incubate with the test chitosans (from the examples) for 45 minutes at 37° C. After removing unbound cells by gently washing the wells with PBS, the fluorescence signal from the bound cells was read on a Tecan Safire2 microplate reader at 450 nm. Points were plotted and the IC50s of each derivatized chitosan polymer were determined by regression analysis using the linear portion of the concentration-response curve.

T1 sequence (P13612 34-1032): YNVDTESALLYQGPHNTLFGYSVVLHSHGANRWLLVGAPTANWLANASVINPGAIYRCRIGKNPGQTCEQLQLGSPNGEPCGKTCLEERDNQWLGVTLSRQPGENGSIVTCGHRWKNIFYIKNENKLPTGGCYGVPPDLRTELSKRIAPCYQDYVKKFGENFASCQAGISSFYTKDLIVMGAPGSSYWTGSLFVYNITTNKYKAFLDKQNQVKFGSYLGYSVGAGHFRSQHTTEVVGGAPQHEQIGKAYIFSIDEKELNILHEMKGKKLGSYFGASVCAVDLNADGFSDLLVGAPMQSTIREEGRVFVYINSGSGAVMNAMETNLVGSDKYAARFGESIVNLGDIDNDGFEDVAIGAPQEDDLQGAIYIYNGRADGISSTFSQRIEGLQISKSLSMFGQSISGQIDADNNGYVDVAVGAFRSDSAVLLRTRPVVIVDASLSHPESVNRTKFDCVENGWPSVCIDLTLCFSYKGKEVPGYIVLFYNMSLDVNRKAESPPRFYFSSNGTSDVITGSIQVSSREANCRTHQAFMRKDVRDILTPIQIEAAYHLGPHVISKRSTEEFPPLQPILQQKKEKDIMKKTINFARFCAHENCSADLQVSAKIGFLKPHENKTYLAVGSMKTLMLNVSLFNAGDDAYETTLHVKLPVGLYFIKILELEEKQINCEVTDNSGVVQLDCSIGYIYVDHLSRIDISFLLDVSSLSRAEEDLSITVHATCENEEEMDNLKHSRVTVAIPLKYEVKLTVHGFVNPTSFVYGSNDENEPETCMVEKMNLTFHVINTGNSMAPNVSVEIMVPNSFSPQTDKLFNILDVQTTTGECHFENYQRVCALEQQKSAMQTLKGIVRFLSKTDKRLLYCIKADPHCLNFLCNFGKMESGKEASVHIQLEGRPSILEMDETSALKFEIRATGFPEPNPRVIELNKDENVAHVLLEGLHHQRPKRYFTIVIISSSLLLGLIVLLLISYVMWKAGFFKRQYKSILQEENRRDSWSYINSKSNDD
T1 sequence (P05556 21-798): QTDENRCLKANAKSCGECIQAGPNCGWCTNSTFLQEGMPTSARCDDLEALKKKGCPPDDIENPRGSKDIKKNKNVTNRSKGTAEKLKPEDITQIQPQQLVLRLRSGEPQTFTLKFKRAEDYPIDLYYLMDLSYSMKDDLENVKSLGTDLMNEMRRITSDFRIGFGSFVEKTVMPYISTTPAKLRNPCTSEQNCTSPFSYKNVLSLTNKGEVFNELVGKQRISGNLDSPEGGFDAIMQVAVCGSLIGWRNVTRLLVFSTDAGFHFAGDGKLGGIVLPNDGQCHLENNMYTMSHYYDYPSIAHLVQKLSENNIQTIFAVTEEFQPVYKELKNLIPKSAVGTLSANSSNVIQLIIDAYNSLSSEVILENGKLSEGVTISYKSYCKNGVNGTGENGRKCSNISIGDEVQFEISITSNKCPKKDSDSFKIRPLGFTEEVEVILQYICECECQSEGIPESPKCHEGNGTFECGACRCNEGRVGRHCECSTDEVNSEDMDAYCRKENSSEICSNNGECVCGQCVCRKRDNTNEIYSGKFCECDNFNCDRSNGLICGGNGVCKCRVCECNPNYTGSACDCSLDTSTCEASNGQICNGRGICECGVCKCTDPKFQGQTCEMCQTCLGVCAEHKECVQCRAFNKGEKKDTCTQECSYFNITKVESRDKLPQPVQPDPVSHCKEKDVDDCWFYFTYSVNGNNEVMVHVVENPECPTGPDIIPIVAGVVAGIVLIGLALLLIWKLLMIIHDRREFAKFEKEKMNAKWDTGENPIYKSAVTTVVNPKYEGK

Cc1cccc(Cl)c1C(=O)NC(Cc1ccc(NC(=O)c2c(Cl)cccc2Cl)cc1)C(=O)O (centres unmarked) [Control (27), reference compound]
IC50 (Jurkat cells on VCAM-1-coated plates, Mn2+ activated, 45 minutes at 37° C., Table 1, read-out: Binding IC50): 4 nM
IC50 (control compound in the Jurkat/VCAM-1 adhesion assay, read-out: IC50): ~12 nM
